The source of these data is patent publication US5258406A, “Sulfonimidamides” (priority 1992, dated 1993).

The structures appear in SMILES notation. Where two headings read alike, the source gives them in different places.

The test system of one data set is HC1. Format: in vivo. On the procedure:
(§1) The compounds were tested in C3H mice bearing a 6C3HED lymphosarcoma, also known as the Gardner lymphosarcoma (GLS), and in a variety of human tumor xenografts in CD1 nu/nu mice, including CX-1, LX-1, HXGC3, and VRC5. The 6C3HED lymphosarcoma was obtained from the Division of Cancer Treatment, National […] Institute, Tumor Bank, maintained at E. G. and G. Mason Research (Worcester, Mass.). The CX-1 human colon carcinoma and the LX-1 human lung carcinoma xenografts were obtained from the National Cancer Institute. The HXGC3 and VRC5 human colon xenografts were obtained from Dr. P. J. Houghton, St. Jude Children's Hospital in Memphis (see Br. J. Cancer, 37, 213 (1978)). First passage tumor was stored in liquid nitrogen using standard techniques. The transplanted tumor was reestablished from the Tumor Bank every six months or as needed. The tumor was maintained by serial passage twice weekly in C3H mice.
(§2) In the procedure the tumor was removed from passage animals and minced into 1- to 3-mm square fragments using sterile techniques. Tumor pieces were checked for sterility using both Antibiotic Medium 1 and Brain Heart Infusion (Difco, Detroit, Mich.). Recipient mice were shaved and tumor pieces were implanted subcutaneously in the auxiliary region by trocar. Drug therapy on the appropriate schedule was initiated on the day after tumor implant for 6C3HED and after a seven (7) day delay for xenografts (or other delay as noted in Table 2). The compound being tested was mixed with 2.5% Emulphor EL620 from GAF Corporation (1:40 dilution in saline). Food and water were provided ad libitium. The drug was administered orally in 0.5 ml of 2.5% Emulphor (unless otherwise indicated). The tumor was measured the day after treatment ended with two dimensional measurements (width and length) of the tumor taken using automated digital calipers interfaced to a microcomputer. Approximate weight for the tumor was calculated using the following formula [Worzalla, J. F., et al., Invest. New Drugs, 8, 241 (1990], (tumor weight in mg)=(width in mm)^2 ×(length in mm)/2.
(§3) At least one control group of an equal number of mice was treated with the same volume of 2.5% Emulphor only. The percent inhibition was determined by subtracting the ratio of the mean tumor size of the test group relative to the control group from one and multiplying the result times 100.
(§4) The results of several experiments in mice bearing a 6C3HED lymphosarcoma (or other tumor where indicated) when the indicated compounds were administered are provided in Table 2. In Table 2, column 1 gives the Example number of the compound used, column 2 lists the dose level in mg/kg, column 3 provides the percent inhibition of tumor growth, column 4 gives the number of mice which died relative to the total number of animals in the group, column 5 gives the method of administration of the compound, and column 6 gives the dosage schedule. The protocol used with other tumors was the same as with the 6C3HED lymphosarcoma.

For a further data set, the system named is VRC5. Format: in vivo. To be noted: oral, DX 10. On the procedure:
as §1, §2, §3, §4

The next data set deals with LX1. Format: in vivo. To be noted: oral, DX 10, from day 7 after implant. The method, then:
as §1, §2, §3, §4

In the next data set the test system is 6C3HED lymphosarcoma. The experiment in a line: animal or person. Format: in vivo.
For data set [1] the following is noted: Johnson et al., J. Org. Chem. 44, 2055 (1979); cited from earlier work.

In the case of `NS(=O)(=NC(=O)Nc1ccc(Cl)cc1)c1ccc(CO)cc1` (stereo not drawn) [Example 50], the “% inhibition of tumor growth” value in the data set on HC1 (IP 0.6 ml, 5 mg/kg, BIDX 14) is listed as 6%; in the data set with HC1 (IP 0.6 ml, 10 mg/kg, BIDX 14), 31%; with HC1 (IP 0.6 ml, 20 mg/kg, BIDX 14), 33%; in the data set on HC1 (IP 0.6 ml, 40 mg/kg, BIDX 14) it was 71%; in the data set with HC1 (oral, 75 mg/kg, BIDX 10) it was 46%; in the data set on HC1 (oral, 150 mg/kg, BIDX 10), 23%. The “% inhibition of tumor growth” value in the data set with VRC5 (150 mg/kg) is 27%; in the data set on VRC5 (300 mg/kg), 59%; in the data set with LX1 (150 mg/kg), 32%; in the data set with LX1 (300 mg/kg), 34%. Also, the “Tox/Tot (mice which died / total)” value with HC1 (IP 0.6 ml, 5 mg/kg, BIDX 14) is 0/10; in the data set on HC1 (IP 0.6 ml, 10 mg/kg, BIDX 14) it was 0/10; with HC1 (IP 0.6 ml, 20 mg/kg, BIDX 14), 0/10; in the data set with HC1 (IP 0.6 ml, 40 mg/kg, BIDX 14), 1/10; in the data set on HC1 (oral, 75 mg/kg, BIDX 10), 0/9; with HC1 (oral, 150 mg/kg, BIDX 10), 2/9. The “Tox/Tot (mice which died / total)” value with VRC5 (150 mg/kg) is 0/10; in the data set with VRC5 (300 mg/kg), 0/10; in the data set on LX1 (150 mg/kg) it was 0/10; with LX1 (300 mg/kg), 0/10; in the data set with 6C3HED lymphosarcoma (IP, 5 mg/kg, BIDX 8), 0/10; with 6C3HED lymphosarcoma (IP, 10 mg/kg, BIDX 8), 0/10. In addition, the “Tox/Tot (mice which died / total)” value with 6C3HED lymphosarcoma (IP, 20 mg/kg, BIDX 8) is listed as 0/10; with 6C3HED lymphosarcoma (IP, 40 mg/kg, BIDX 8), 1/10; in the data set with 6C3HED lymphosarcoma (IP, 75 mg/kg, BIDX 8), 0/10; in the data set on 6C3HED lymphosarcoma (IP, 150 mg/kg, BIDX 8), 0/10; in the data set on 6C3HED lymphosarcoma (IP, 150 mg/kg, DX 8) it was 0/10; in the data set on 6C3HED lymphosarcoma (IP, 300 mg/kg, BIDX 8), 9/10. The “Tox/Tot (mice which died / total)” value was 1/10 in the data set on 6C3HED lymphosarcoma (IP, 300 mg/kg, DX 8); 2/10 with 6C3HED lymphosarcoma (oral, 75 mg/kg, BIDX 8); 2/10 in the data set with 6C3HED lymphosarcoma (oral, 150 mg/kg, BIDX 8); 9/10 with 6C3HED lymphosarcoma (oral, 300 mg/kg, BIDX 8). Besides, in the data set on 6C3HED lymphosarcoma (Mus musculus, 6C3HED, ip, read-out: % inhibition of tumor growth, IP, 5 mg/kg, BIDX 8), the inhibition in vivo at 5 mg/kg came out at 34%. For the same compound, the inhibition in vivo at 10 mg/kg in the data set with 6C3HED lymphosarcoma (Mus musculus, 6C3HED, ip, read-out: % inhibition of tumor growth, IP, 10 mg/kg, BIDX 8) turned out to be 49%. Besides, the inhibition in vivo at 20 mg/kg with 6C3HED lymphosarcoma (Mus musculus, 6C3HED, ip, read-out: % inhibition of tumor growth, IP, 20 mg/kg, BIDX 8) turned out to be 72%. In addition, in the data set with 6C3HED lymphosarcoma (Mus musculus, 6C3HED, ip, read-out: % inhibition of tumor growth, IP, 40 mg/kg, BIDX 8), the inhibition in vivo at 40 mg/kg worked out at 86%. Also, the inhibition in vivo at 75 mg/kg is 96% with 6C3HED lymphosarcoma (Mus musculus, 6C3HED, ip, read-out: % inhibition of tumor growth, IP, 75 mg/kg, BIDX 8) and 99% in the data set with 6C3HED lymphosarcoma (Mus musculus, 6C3HED, po, read-out: % inhibition of tumor growth, oral, 75 mg/kg, BIDX 8). Further, the inhibition in vivo at 150 mg/kg in the data set with 6C3HED lymphosarcoma (Mus musculus, 6C3HED, ip, read-out: % inhibition of tumor growth, IP, 150 mg/kg, BIDX 8) worked out at 99%; with 6C3HED lymphosarcoma (Mus musculus, 6C3HED, ip, read-out: % inhibition of tumor growth, IP, 150 mg/kg, DX 8), 93%; in the data set on 6C3HED lymphosarcoma (Mus musculus, 6C3HED, po, read-out: % inhibition of tumor growth, oral, 150 mg/kg, BIDX 8), 100%. The inhibition in vivo at 300 mg/kg with 6C3HED lymphosarcoma (Mus musculus, 6C3HED, ip, read-out: % inhibition of tumor growth, IP, 300 mg/kg, BIDX 8) came to 100%; in the data set on 6C3HED lymphosarcoma (Mus musculus, 6C3HED, ip, read-out: % inhibition of tumor growth, IP, 300 mg/kg, DX 8) it was 99%; in the data set on 6C3HED lymphosarcoma (Mus musculus, 6C3HED, po, read-out: % inhibition of tumor growth, oral, 300 mg/kg, BIDX 8) it was 100%.

Regarding `CCCCNC(=O)NS(=N)(=O)c1ccc(C)cc1` (stereo not drawn) [compound 16, N-butyl-N'-(p-toluenesulfonimidoyl)urea], the “activity in an antidiabetic screen” value in data set [1] is “inactive”.
